From BindingDB's records for doi:10.1016/j.bmc.2019.115193 (Stanford University, 2020)

Experiment: Inhibition of human DYRK1A transfected in HEK293T cells co-transfected with Renilla plasmid, pGL3-NFAT and NFATc1 assessed as derepression of NFAT-dependent luciferase activity measured after 48 hrs by luciferase assay

Compound: CCOC(=O)c1cnc2ccc(-c3ccnc(C)c3)nc2c1N[C@H]1CC[C@H](CN(C)C)CC1
- EC50: 1530 nM
